Measurements from patent US5324502A, “Radiopharmaceuticals for imaging the heart” (priority 1992, dated 1994).
Where two headings read alike, the source gives them in different places.

How the values were obtained:
[1] = PET imaging of the heart with the 68Ga complex; settings: dog, 20 mCi bolus i.v.
From the text: The dog was placed in a plexiglass holder and positioned within the PET VI camera, a positron emission tomograph that permits simultaneous acquisition of seven transverse tomographic slices with a slice-to-slice separation of 1.44 cm, a slice thickness of 1.39 cm, and a reconstructed resolution of 12.0 mm (full width at half maximum). A transmission scan, necessary for attenuation correction, was obtained using an external ring of ^68 Ge/^68 Ga. A ^15 O-myocardial perfusion image was then obtained for reference employing ^15 O-water and ^15 O-carbon monoxide in a standard PET protocol. After decay of the ^15 O activity to background levels, the ^68 Ga-bis(4,6-dimethoxysalicylaldimino)-N,N'-bis(aminopropyl) ethylene-diamine radiopharmaceutical (20 mCi) was administered to the dog as a bolus intravenous injection. Dynamic PET data was collected for ten 1 minute frames commencing at the time of ^68 Ga injection, followed by eight consecutive 10 minute static images. PET images of the chest were reconstructed from each of the ten one minute frames and each of the eight 10 minute frames. […] Regions-of-interest were defined in the ^68 Ga images allowing quantitative determination of regional myocardial tissue concentrations of tracer.

[2] = Octanol/water partition coefficient of radiolabeled gallium complexes; type: physicochemical; settings: 1-octanol / isotonic Tris buffer pH 7.0
Experimental: Octanol/water partition coefficients were measured by vortex mixing 1 mL of 1-octanol and 1 mL of isotonic Tris buffer (pH 7.0) with a 1-5 μL sample of the radiolabeled gallium complex. Following centrifugation at >1200 g for 5 minutes, the octanol and aqueous phases were sampled and counted in an automatic well counter.

[3] = rat, i.v.; for Heart/Blood / Heart/Liver / Heart/Lungs: ratio
Method in brief: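 Male Sprague-Dawley rats under ether anesthesia received 1 to 3 μCi of no-carrier-added Ga-67 complex as a femoral-vein bolus. Animals were killed at set times post-injection; organs weighed and counted. Values given as % injected dose per gram and per organ.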

In the case of `COc1cc([O-])c(C=NCCCNCCNCCCN=Cc2c([O-])cc(OC)cc2OC)c(OC)c1.[68Ga+3]` [^68 Ga-bis(4,6-dimethoxysalicylaldimino)-N,N'-bis(aminopropyl)ethylenediamine], the “clearance of myocardial ^68 Ga radioactivity” value ([1]; 90 minute imaging period) is reported as “No clearance of myocardial ^68 Ga radioactivity was observed” and the “delineation of the heart in ^68 Ga PET images” value ([1]; beyond 20 minutes post-injection) is reported as “the heart was clearly delineated in the ^68 Ga-images with good heart-to-blood and heart-to-lung contrast”.
For “^67 GaL^+ L = [(4-deaSal)2 DM-BAPEN, ^67 GaL^+ L = [bis(diethylaminosalicylaldimino)-N,N'-bis(2,2'-dimethyl-3-aminopropyl)ethylenediamine]]”, the “log P” value [2] was 2.84, the “% Injected Dose per Gram Tissue, Blood” value ([3]; 1 min) was 1.91 ± 0.22 % Injected Dose per Gram Tissu and the “% Injected Dose per Gram Tissue, Brain” value ([3]; 1 min) was 0.05 ± 0.01 % Injected Dose per Gram Tissu. For the same compound, the “% Injected Dose per Gram Tissue, Heart” value ([3]; 1 min) was 0.85 ± 0.09 % Injected Dose per Gram Tissu, the “% Injected Dose per Gram Tissue, Kidney (one)” value ([3]; 1 min) was 4.85 ± 0.75 % Injected Dose per Gram Tissu and the “% Injected Dose per Gram Tissue, Liver” value ([3]; 1 min) was 4.91 ± 0.36 % Injected Dose per Gram Tissu. The “% Injected Dose per Gram Tissue, Lungs” value ([3]; 1 min) was 4.23 ± 0.68 % Injected Dose per Gram Tissu, the “% Injected Dose per Gram Tissue, Spleen” value ([3]; 1 min) was 1.61 ± 0.44 % Injected Dose per Gram Tissu and the “% Injected Dose per Organ, Blood” value ([3]; 1 min) was 30.59 ± 3.45 % Injected Dose per Organ. The “% Injected Dose per Organ, Brain” value ([3]; 1 min) was 0.08 ± 0.02 % Injected Dose per Organ, the “% Injected Dose per Organ, Heart” value ([3]; 1 min) was 0.66 ± 0.06 % Injected Dose per Organ and the “% Injected Dose per Organ, Kidney (one)” value ([3]; 1 min) was 4.25 ± 0.52 % Injected Dose per Organ. For the same compound, the “% Injected Dose per Organ, Liver” value ([3]; 1 min) was 47.04 ± 6.53 % Injected Dose per Organ, the “% Injected Dose per Organ, Lungs” value ([3]; 1 min) was 5.30 ± 0.23 % Injected Dose per Organ and the “% Injected Dose per Organ, Spleen” value ([3]; 1 min) was 1.12 ± 0.34 % Injected Dose per Organ. For the same compound, the “% injected dose in heart, 1 min” value ([3]; 1 min, preliminary studies) was 0.66 ± 0.06 % injected dose, the “% Injected Dose per Gram Tissue, Blood” value ([3]; 15 min) was 0.30 ± 0.04 % Injected Dose per Gram Tissu and the “% Injected Dose per Gram Tissue, Brain” value ([3]; 15 min) was 0.02 ± 0.01 % Injected Dose per Gram Tissu. For the same compound, the “% Injected Dose per Gram Tissue, Heart” value ([3]; 15 min) was 0.57 ± 0.05 % Injected Dose per Gram Tissu, the “% Injected Dose per Gram Tissue, Kidney (one)” value ([3]; 15 min) was 5.55 ± 0.50 % Injected Dose per Gram Tissu and the “% Injected Dose per Gram Tissue, Liver” value ([3]; 15 min) was 4.78 ± 1.20 % Injected Dose per Gram Tissu. For the same compound, the “% Injected Dose per Gram Tissue, Lungs” value ([3]; 15 min) was 2.06 ± 0.21 % Injected Dose per Gram Tissu, the “% Injected Dose per Gram Tissue, Spleen” value ([3]; 15 min) was 3.15 ± 0.45 % Injected Dose per Gram Tissu and the “% Injected Dose per Organ, Blood” value ([3]; 15 min) was 5.08 ± 0.71 % Injected Dose per Organ. For the same compound, the “% Injected Dose per Organ, Brain” value ([3]; 15 min) was 0.00 ± 0.00 % Injected Dose per Organ, the “% Injected Dose per Organ, Heart” value ([3]; 15 min) was 0.46 ± 0.04 % Injected Dose per Organ and the “% Injected Dose per Organ, Kidney (one)” value ([3]; 15 min) was 4.79 ± 0.38 % Injected Dose per Organ. The “% Injected Dose per Organ, Liver” value ([3]; 15 min) was 50.24 ± 11.08 % Injected Dose per Organ, the “% Injected Dose per Organ, Lungs” value ([3]; 15 min) was 2.71 ± 0.22 % Injected Dose per Organ and the “% Injected Dose per Organ, Spleen” value ([3]; 15 min) was 2.29 ± 0.42 % Injected Dose per Organ. The “% Injected Dose per Gram Tissue, Blood” value ([3]; 120 min) was 0.06 ± 0.01 % Injected Dose per Gram Tissu, the “% Injected Dose per Gram Tissue, Brain” value ([3]; 120 min) was 0.00 ± 0.00 % Injected Dose per Gram Tissu and the “% Injected Dose per Gram Tissue, Heart” value ([3]; 120 min) was 0.47 ± 0.02 % Injected Dose per Gram Tissu. For the same compound, the “% Injected Dose per Gram Tissue, Kidney (one)” value ([3]; 120 min) was 5.28 ± 0.32 % Injected Dose per Gram Tissu, the “% Injected Dose per Gram Tissue, Liver” value ([3]; 120 min) was 0.96 ± 0.14 % Injected Dose per Gram Tissu and the “% Injected Dose per Gram Tissue, Lungs” value ([3]; 120 min) was 1.02 ± 0.13 % Injected Dose per Gram Tissu. The “% Injected Dose per Gram Tissue, Spleen” value ([3]; 120 min) was 2.89 ± 0.21 % Injected Dose per Gram Tissu, the “% Injected Dose per Organ, Blood” value ([3]; 120 min) was 1.06 ± 0.20 % Injected Dose per Organ and the “% Injected Dose per Organ, Brain” value ([3]; 120 min) was 0.02 ± 0.01 % Injected Dose per Organ. For the same compound, the “% Injected Dose per Organ, Heart” value ([3]; 120 min) was 0.40 ± 0.04 % Injected Dose per Organ, the “% Injected Dose per Organ, Kidney (one)” value ([3]; 120 min) was 5.17 ± 0.19 % Injected Dose per Organ and the “% Injected Dose per Organ, Liver” value ([3]; 120 min) was 11.06 ± 2.46 % Injected Dose per Organ. For the same compound, the “% Injected Dose per Organ, Lungs” value ([3]; 120 min) was 1.31 ± 0.07 % Injected Dose per Organ, the “% Injected Dose per Organ, Spleen” value ([3]; 120 min) was 2.09 ± 0.18 % Injected Dose per Organ and the “% injected dose in heart, 2 h” value ([3]; 2 h, preliminary studies) was 0.40 ± 0.04 % injected dose. For the same compound, the Heart/Blood ([3]; 1 min) was 0.45 ± 0.04, the Heart/Liver ([3]; 1 min) was 0.17 ± 0.03 and the Heart/Lungs ([3]; 1 min) was 0.20 ± 0.02. It also gave a Heart/Blood ([3]; 15 min) of 1.94 ± 0.33, a Heart/Liver ([3]; 15 min) of 0.13 ± 0.04 and a Heart/Lungs ([3]; 15 min) of 0.28 ± 0.04. The Heart/Blood ([3]; 120 min) was 8.06 ± 1.62, the Heart/Liver ([3]; 120 min) was 0.50 ± 0.07 and the Heart/Lungs ([3]; 120 min) was 0.46 ± 0.07.
